From patent US10206907B2, “Compounds useful for the treatment of degenerative and inflammatory diseases” (GALAPAGOS NV, priority 2008, dated 2019)

Legend:
[1] = biological target: Recombinant human JAK1 catalytic domain (Homo sapiens (Human), UniProt P23458); assay: JAK1 inhibition assay; format: biochemical; settings: semi-quantitative score
Procedure, shortened: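 IC50 values come from dose-response series, with each point expressed as percent inhibition of cpm. Vehicle sets full activity and 10 μM staurosporine sets background. Incorporated radioactivity counted by scintillation after washing with 75 mM phosphoric acid.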

[2] = test system: JAK-STAT signalling in HeLa cells; assay: JAK-STAT signalling assay (OSM-triggered pSTAT1(2)-luciferase reporter in HeLa cells); format: cell-based; settings: Homo sapiens; HeLa cells, OSM-triggered pSTAT1(2)-luciferase reporter; read-out: STAT signalling EC50
Procedure: HeLa cells were maintained in Dulbecco's Modified Eagle's Medium (DMEM) containing 10% heat inactivated fetal calf serum, 100 U/mL penicillin and 100 μg/mL streptomycin. HeLa cells were used at 70% confluence for transfection. 20,000 cells in 87 μL cell culture medium were transiently transfected with 40 ng pSTAT1(2)-luciferase reporter (Panomics), 8 ng of LacZ reporter as internal control reporter and 52 ng of pBSK using 0.32 μL Jet-PEI (Polyplus) as transfection reagent per well in 96-well plate format. After overnight incubation at 37° C., 10% CO2, transfection medium was removed.
40 μL of cell lysate was used to read β-galactosidase activity by adding 180 μL βGal solution (30 μl ONPG 4 mg/mL+150 μL β-Galactosidase buffer (0.06 M Na2HPO4, 0.04 M NaH2PO4, 1 mM MgCl2)) for 20 min.
Luciferase activity was measured using 40 μL cell lysate plus 40 μl of Steadylite® as described by the manufacturer (Perkin Elmer), on the Envision (Perkin Elmer).
The positive and negative controls were used to calculate z’ and ‘percent inhibition’ (PIN) values.
PIN values were plotted for compounds tested in dose-response and EC50 values were derived.

[3] = biological target: Recombinant human JAK2 catalytic domain (Homo sapiens (Human), UniProt O60674); assay: JAK2 inhibition assay; format: biochemical; settings: semi-quantitative score
Procedure: After 90 min at 30° C., reactions were stopped by adding of 25 μL/well of 150 mM phosphoric acid. […] Plates were washed 6 times with 300 μL per well of a 75 mM phosphoric acid solution and the bottom of the plates was sealed. 40 μL/well of Microscint-20 was added, the top of the plates was sealed and readout was performed using the Topcount (Perkin Elmer). Kinase activity was calculated by subtracting counts per minute (cpm) obtained in the presence of a positive control inhibitor (10 μM staurosporine) from cpm obtained in the presence of vehicle. The ability of a test compound to inhibit this activity was determined as: Percentage inhibition=((cpm determined for sample with test compound present−cpm determined for sample with positive control inhibitor) divided by (cpm determined in the presence of vehicle−cpm determined for sample with positive control inhibitor))*100%.
Dose dilution series were prepared for the compounds enabling the testing of dose-response effects in the JAK2 assay and the calculation of the IC50 for each compound.

Sequence of Recombinant human JAK2 catalytic domain (O60674 808-1132): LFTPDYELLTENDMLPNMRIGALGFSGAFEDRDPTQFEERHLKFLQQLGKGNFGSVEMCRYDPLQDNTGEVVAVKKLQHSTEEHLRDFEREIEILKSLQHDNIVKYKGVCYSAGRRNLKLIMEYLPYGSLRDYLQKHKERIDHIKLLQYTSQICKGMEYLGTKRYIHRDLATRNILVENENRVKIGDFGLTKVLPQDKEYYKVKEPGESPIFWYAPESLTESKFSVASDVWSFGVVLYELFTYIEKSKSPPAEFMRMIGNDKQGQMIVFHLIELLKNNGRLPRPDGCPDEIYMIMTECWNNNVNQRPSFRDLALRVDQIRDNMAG
Sequence of Recombinant human JAK1 catalytic domain (P23458 850-1154): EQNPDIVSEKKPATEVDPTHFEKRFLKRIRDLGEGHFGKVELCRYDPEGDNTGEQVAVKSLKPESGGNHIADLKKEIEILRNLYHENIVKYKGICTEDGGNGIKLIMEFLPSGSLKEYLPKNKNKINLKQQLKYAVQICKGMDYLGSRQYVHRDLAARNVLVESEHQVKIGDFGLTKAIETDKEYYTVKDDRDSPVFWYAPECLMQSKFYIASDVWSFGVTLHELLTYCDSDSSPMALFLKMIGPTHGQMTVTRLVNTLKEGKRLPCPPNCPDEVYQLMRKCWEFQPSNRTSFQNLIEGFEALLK

SMILES	IC50 [1] [nM]	EC50 [2] [nM]	IC50 [3] [nM]
O=C(NCc1ccc(-c2cccc3nc(NC(=O)C4CC4)nn23)cc1)C1CCC1 [Compound 268, Cyclobutanecarboxylic acid 4-[2-(cyclopropanecarbonyl-amino)-[1,2,4]triazolo[1,5-a]pyridin-5-yl]-benzylamide]	< 100	> 1000	
N#CC1CCN(Cc2ccc(-c3cccc4nc(NC(=O)C5CC5)nn34)cc2)CC1 [Compound 232, Cyclopropanecarboxylic acid {5-[4-(4-cyano-piperidin-1-ylmethyl)-phenyl]-[1,2,4]triazolo[1,5-a]pyridin-2-yl}-amide]	< 100	> 1000	101 to 500
COC1CCN(Cc2ccc(-c3cccc4nc(NC(=O)C5CC5)nn34)cc2)CC1 [Compound 281, Cyclopropanecarboxylic acid {5-[4-(4-methoxy-piperidin-1-ylmethyl)-phenyl]-[1,2,4]triazolo[1,5-a]pyridin-2-yl}-amide]	< 100	> 1000	> 1000
O=C(NCc1ccc(-c2cccc3nc(NC(=O)C4CC4)nn23)cc1)C1CC1 [Compound 272, Cyclopropanecarboxylic acid 4-[2-(cyclopropanecarbonyl-amino)-[1,2,4]triazolo[1,5-a]pyridin-5-yl]-benzylamide]	< 100	> 1000	101 to 500
CN(C)C1CCCN(C(=O)c2ccc(-c3cccc4nc(NC(=O)C5CC5)nn34)cc2)C1 (stereo not shown) [Compound 269, Cyclopropanecarboxylic acid {5-[4-(3-dimethylamino-piperidine-1-carbonyl)-phenyl]-[1,2,4]triazolo[1,5-a]pyridin-2-yl}-amide]	101 to 500	> 1000	> 1000
Cc1ccc(C(N)=O)cc1NCc1ccc(-c2cccc3nc(NC(=O)C4CC4)nn23)cc1 [Compound 249]	< 100	> 1000	
O=C(Nc1nc2cccc(-c3ccc(C(=O)N4CCC(C(=O)N5CCOCC5)CC4)cc3)n2n1)C1CC1 [Compound 219, Cyclopropanecarboxylic acid (5-{4-[4-(morpholine-4-carbony)-piperidine-1-carbonyl]-phenyl}-[1,2,4]triazolo[1,5-a]pyridin-2-yl)-amide]	> 1000		> 1000

Second part, the molecule after the results:

IC50 [1] [nM]	EC50 [2] [nM]	IC50 [3] [nM]	SMILES
< 100	> 1000	501 to 1000	N#Cc1ccc(COC2CN(c3ccc(-c4cccc5nc(NC(=O)C6CC6)nn45)cc3)C2)cc1 [Compound 284, Cyclopropanecarboxylic acid (5-{4-[3-(4-cyano-benzyloxy)-azetidin-1-yl]-phenyl}-[1,2,4]triazolo[1,5-a]pyridin-2-yl)-amide]
< 100	> 1000	101 to 500	O=C(Nc1nc2cccc(-c3ccc(CN4CCCC(O)C4)cc3)n2n1)C1CC1 (stereo not shown) [Compound 313, Cyclopropanecarboxylic acid {5-[4-(3-hydroxy-piperidin-1-ylmethyl)-phenyl]-[1,2,4]triazolo[1,5-a]pyridin-2-yl}-amide]
< 100	> 1000	101 to 500	N#CC1CN(c2ccc(-c3cccc4nc(NC(=O)C5CC5)nn34)cc2)C1 [Compound 288, Cyclopropanecarboxylic acid {5-[4-(3-cyano-azetidin-1-yl)-phenyl]-[1,2,4]triazolo[1,5-a]pyridin-2-yl}-amide]
< 100	> 1000		COC1CN(C(=O)Cc2ccc(-c3cccc4nc(NC(=O)C5CC5)nn34)cc2)C1 [Compound 321, Cyclopropanecarboxylic acid (5-{4-[2-(3-methoxy-azetidin-1-yl)-2-oxo-ethyl]-phenyl} - [1,2,4]triazolo[1,5-a]pyridin-2 yl)-amide]
101 to 500		101 to 500	O=C(Nc1nc2cccc(-c3ccc(CNC4CC4)cc3)n2n1)C1CC1 [Compound 312, Cyclopropanecarboxylic acid [5-(4-cyclopropylaminomethyl-phenyl)-[1,2,4]triazolo[1,5-a]pyridin-2-yl]-amide]
